The nature of data set [1]: Kinetic solubility in phosphate buffer and FeSSIF. It counts as physicochemical. The note with it: kinetic from iPrOH stock. The method, then:
Solubility in Phosphate Buffer and Fed State Simulated Intestinal Fluid (FeSSIF) 8 µL of reference or test compound stock solution (10 mM in iPrOH) was added to 792 μL of 100 mM phosphate buffer (pH 7.4) or FeSSIF (pH 5.8). The resulting mixture was shaken for 1 h (1000 rpm) at room temperature and then centrifuged for 10 min (12 000 rpm) to remove the undissolved particles. The supernatant was collected and diluted 10 times and 100 times separately with 100 mM phosphate buffer or FeSSIF. Five microliters of the supernatant samples (no diluted, 10 times diluted, 100 times diluted) were mixed with 95 μL of acetonitrile (containing internal standard) separately before injecting into LC-MS/MS for analysis. […]

A short description of another data set: Plasma stability assay. Type of data set: in vitro ADME. The note with it: mouse plasma; read-out: stability T1/2 in mouse plasma. The procedure:
Frozen plasma was thawed at 37 °C and centrifuged at 3000 rpm for 8 min to remove clots, and the supernatant was used in the experiment. The pH of the plasma was recorded, and only the pH range between 7.4 and 8 was used. The plasma and compound solution were prewarmed to 37 °C. 10 µL of prewarmed testing compound or reference compound (procaine) solution (20 μM in 0.05 mM sodium phosphate buffer (pH 7.4) with 0.5% BSA) was mixed with 90 μL of plasma at different time points to allow for 5, 15, 30, 45, and 60 min of incubation time. For 0 min, the plasma was mixed with vehicle only. Acetonitrile was added to the compound and plasma mixture to quench the reaction, and the resulting mixture was centrifuged (5594g for 15 min). The

A further data set relates to HEK293 cells. Description: Cell viability assay (CellTiter-Glo). It counts as cell-based. The note with it: 72 h. The procedure: (§1) Therefore, we assessed the impact of the BET-degrading FerroTAC AS6 on the viability of BET-sensitive HCT116 cells and HEK293 cells (Figure 6A). […]
(§2) room temperature and protected from light. Thereafter, the membranes were washed with TBS-T three times for 10 min, and protein bands were acquired using a ChemiDoc MP imaging system (Bio-Rad). Band quantification was performed using Image Lab software and reported as ratio of each protein band relative to […]
(§3) Peak elution was monitored using ultraviolet absorbance at 280 nm.

The subject of a further data set is HCT116 cells. Description: Cell viability assay (CellTiter-Glo). Type of data set: cell-based. The note with it: Homo sapiens, HCT-116, 72 h; read-out: IC50 ± S.D. HCT116. The method, then:
as §1, §2, §3

The nature of data set [2]: ChromLogD (chromatographic). Type of data set: physicochemical. The note with it: HPLC on Hypersil GOLD-C18 column, pH 7.4. The method, then:
(§4) For the permeabilised-cell assay, 10 µL of digitonin was added, and plates were incubated in darkness for 5 minutes to allow permeabilisation. In each well 10 µL of the 10x PROTAC and vehicle control dilutions were dispensed. A 100x NanoBRET tracer solution (50 µM for VHL permeabilised-cell assay) was prepared with 100% DMSO, then diluted to a 20x solution with tracer dilution buffer. A 5 µL volume of tracer was dispensed into each well at a final concentration of 0.5 µM, and the plate was mixed at 300 RPM for 15 seconds. Finally, 50 µL of a 3x substrate solution (8.8 µL NanoBRET Nano-Glo substrate and 3,500 µL Opti-MEM) was added, and plates were incubated for 1 minute at room temperature before reading on a GloMax Discover as […]
HiBiT Lytic Assay with Zosuquidar Co-treatment
A modified HiBiT lytic assay was used to assess the activity of zosuquidar on the BET degradation. […]
Luminescence was measured using the GloMax® Multiplex Luminescence and Fluorescence Protocol for 96-well plates. The luminescence signal for each well was normalised to the fluorescence signal and further normalised to the mean values from iPrOH-treated controls, then expressed as a ratio relative to the vehicle control. Curve fitting and DC50 values were determined in GraphPad Prism v.10.0.3 using nonlinear regression with a three-parameter logistic model to calculate DC50 values.
The stock solution of each test item was prepared from a 10mM stock in iPrOH, which was further diluted 1:50 with […] to obtain a 0.2 mM solution (4 µL of the test item stock solution is diluted with 196 µL DMSO) in insert vials. The samples were analysed on an HPLC system equipped with a HPLC-ThermoScientific Hypersil GOLD-C18 column (2.1 x 50 mm, 1.9 µm) and by MS detection using electrospray ionization (ESI) and Atmospheric Pressure Chemical Ionization (APCI) on a Shimadzu LCMS 2050. […]
(§5) of 1 mL/min and a column temperature of 40 °C. […] Data were analysed with Shimadzu Open Solution Data Browser to obtain the RTs of the peak for each individual compound and standards. […]

Data set [3] can be described thus: LogD7.4 shake flask (octanol/phosphate buffer). It counts as physicochemical. The note with it: octanol/potassium phosphate buffer, pH 7.4.
Text: The modulation of lipophilicity could play a critical role in optimizing PROTACs. We thus utilized traditionally measured LogD values from shake flask experiments alongside chromatographically assessed ChromLogD values.[72] […] By incorporating ferrocene, permeability may be improved due to the feature of promoting IMHB-mediated compact conformations, while also balancing the lipophilicity of the polar ligand/PEG linkers. However, while sufficient lipophilicity is required for passive uptake over the cell membrane, it may also drive poor aqueous solubility.[73]
as §4
HiBiT Lytic Assay with Zosuquidar Co-treatment […]
Luminescence was measured using the GloMax® Multiplex Luminescence and Fluorescence Protocol for 96-well plates. The luminescence signal for each well was normalised to the fluorescence signal and further normalised to the mean values from iPrOH-treated controls, then expressed as a ratio relative to the vehicle control. Curve fitting and DC50 values were determined in GraphPad Prism v.10.0.3 using nonlinear regression with a three-parameter logistic model to calculate DC50 values. […]
as §5
ChromLogD values for the compounds were then calculated based on the regression curve. […]

Data set [4] is described as follows: Mouse liver microsome stability. It counts as in vitro ADME. The note with it: liver microsomes. The procedure:
Mouse Liver Microsome Stability
Testing compound (1.5 μL) or reference compound (500 μM in 5% iPrOH and 95% acetonitrile) was mixed with 18.75 μL of 20 mg/mL liver microsome (Corning) and 479.75 μL of potassium phosphate buffer (0.1 M potassium phosphate buffer, 1 mM EDTA, pH 7.4). The reaction was started by mixing 30 μL of the above mixture (prewarmed to 37 °C) with 15 μL of 6 mM NADPH stock solution (prewarmed to 37 °C). After incubating for 5, 15, 30, or 45 min, 135 μL of acetonitrile containing internal standard was added to stop the reaction. For 0 min, the compound and microsome mixture were mixed with acetonitrile first before adding NADPH. After quenching, the reaction mixture was centrifuged, and the supernatant was taken and diluted for LC-MS

For another data set, the target named is T1, pVHL30 (Homo sapiens, UniProt P40337).
T1 construct: endogenous in cells; host or cells: HEK293 (ATCC)
Put plainly: Western blot VHL degradation in HEK293 cells. It counts as cell-based. The note with it: HEK293, 4 h, 1 μM.

Converted amounts (≈) assume the structure as drawn. Read-outs that look alike come from different tables or passages of the source.

T1 sequence (P40337 whole entry): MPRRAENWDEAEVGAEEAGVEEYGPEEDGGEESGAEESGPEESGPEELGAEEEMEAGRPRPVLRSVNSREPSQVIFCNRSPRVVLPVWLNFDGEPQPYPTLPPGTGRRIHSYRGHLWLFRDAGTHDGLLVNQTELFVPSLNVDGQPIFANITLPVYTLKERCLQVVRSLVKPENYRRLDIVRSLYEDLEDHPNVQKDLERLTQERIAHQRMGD
Method for pVHL30: To further elucidate the mode of action of FerroTAC AS2, we explored its dependency on ubiquitination and proteasome activity.
A) Representative immunoblots of VHL protein levels after treatment of
HEK293 cells. Cells were treated with 0.1% EtOH, 0.1 μM or 1 μM of the indicated compounds for 4 and 24 h.
Controls were included at 1 μM for 24 h. Mean values of two biologically independent experiments.
Representative time-course immunoblots of VHL protein levels after treatment of HEK293 cells treated with
Cells were treated with 0.1% EtOH and controls at 1 μM. Mean values of two biologically
independent experiments. Apparent half-life values (t 1/2) were estimated by fitting band intensity against time
using a single-phase exponential decay model. C) Representative immunoblots of VHL protein levels in
neddylation inhibitor MLN4924 (3 μM) and VHL inhibitor VH032 (50 μM). The amount of EtOH (0.1%) and
DMSO (0.5%) is fixed in all samples. Band quantification was performed using ImageJ software and reported
(in black and black) as relative amount as ratio of each protein band relative to the lane’s loading control
(tubulin). VHL/tubulin protein ratios were normalised to the average of the controls (100%).
HEK293 and HCT116 cell lines, purchased from ATCC, were cultured in Dulbecco’s modified Eagle’s medium (DMEM, Gibco) supplemented with 10% fetal bovine serum (FBS, Gibco), L-glutamine (2 mM, Gibco) and 100 μg/mL of penicillin/streptomycin (Gibco). All cell lines were maintained in a humidified incubator at 37 °C and 5% CO2 for no more than 30 passages. Cells were routinely tested for mycoplasma contamination.
Cell Treatment for Immunoblotting
depending on the experimental setup. Cells were treated in fresh medium with the indicated compounds under indicated conditions with a final EtOH or iPrOH concentration of 0.01% (v/v) to 0.1% (v/v) depending on the experimental setup. […]
stored at −80°C. Protein concentration was determined by bicinchoninic acid (BCA) assay (Thermo Fisher […]
Quantitative Immunoblotting […]

As to `Cc1ncsc1-c1ccc(CNC(=O)C2CC(O)CN2C(=O)C(NC(=O)COCCOCCOCCNC(=O)CC2N=C(c3ccc(Cl)cc3)c3c(sc(C)c3C)-n3c(C)nnc32)C(C)(C)C)cc1` (stereo not shown) [MZ1], the kinetic solubility at 1 h in data set [1] (FeSSIF pH 5.8, read-out: kinetic solubility FeSSIF (pH 5.8)) came out at 51.1 µM (≈ 51.2 µg/mL); in data set [1] (phosphate buffer, aqueous buffer, PBS pH 7.4, read-out: kinetic solubility PBS (pH 7.4)), 22.4 µM (≈ 22.4 µg/mL). Further, the half-life at 2 µM in the data set “Plasma stability assay” was 5.78 h. The “cytotoxicity in HEK293 cells (in words)” value in the data set with HEK293 cells is listed as “almost no intrinsic cytotoxicity”. In addition, in the data set with HCT116 cells, the IC50 stood at 1330 nM. The chromatographic logD in data set [2] stood at 4.1. This compound showed a logD in data set [3] of 3.8. The CLint scaled at 1 µM in data set [4] (pH 7.4) was found to be 2180 mL/min/kg. In addition, the half-life at 1 µM in data set [4] (pH 7.4, read-out: stability T1/2 in mouse microsome) was determined as 2.5 min.

Take `Cc1ncsc1-c1ccc([C@H](C)NC(=O)[C@@H]2C[C@@H](O)CN2C(=O)[C@@H](NC(=O)COCCOCCOCCOCCOCCOCC(=O)N[C@H](C(=O)N2C[C@H](O)C[C@H]2C(=O)N[C@@H](C)c2ccc(-c3scnc3C)cc2)C(C)(C)C)C(C)(C)C)cc1` [MeCM11]: the “pVHL30 degradation (in words)” value at pVHL30 was “failed to induce significant degradation”.

The record behind these values is article PMC12022980, “Rational Design of PROTAC Linkers Featuring Ferrocene as a Molecular Hinge to Enable Dynamic Conformational Changes” (Journal of the American Chemical Society, 2025).
